Experimental data as given in PMC8537711, “Mechanistic Insights into Binding of Ligands with Thiazolidinedione Warhead to Human Histone Deacetylase 4” (Pharmaceuticals, 2021).

What was measured:
[1] = target: T1, cdHDAC4wt (catalytic domain of human wild type histone deacetylase 4) (Homo sapiens, UniProt P56524); test: IC50 determination, enzyme activity assay with Boc-Lys{TFA}-AMC; assay type: biochemical; details: mean ± SD, N = 3
T1 construct: consists of 410 amino acids (human HDAC4 T648-T1057) and has a molecular weight of 44.2 kDa; His6-SUMO (cleaved yes); made in house; host or cells: E. coli (BL21) DE3 pLysS, pET14b vector
Protocol: Afterwards the enzymatic reaction was initiated by the addition of 20 µM Boc-Lys{TFA}-7-Amino-4-methylcoumarin (Bachem, Bubendorf, Switzerland) as substrate. […] The deacetylated substrate was converted into a fluorescent product by the addition of 0.4 mg/mL trypsin (AppliChem, Darmstadt, Germany). The release of fluorogenic substrate was followed in a microplate reader (PherStar Plus, BMG Labtech, Ortenberg, Germany) at 450 nm (λEx = 350 nm) and correlated to enzyme activity.
All incubations steps were performed for 60 min at 30 °C and 450 rpm.

cdHDAC4wt [2] = target: T2, cdHDAC4wt (Homo sapiens, UniProt P56524); test: Association kinetics (semi continuous enzyme activity assay, kobs vs inhibitor concentration); assay type: biochemical; details: for residence time: 1/koff (two step) or 1/k−3 (one step), read-out: RT (KF), residence time from kinetic fit; for forward isomerization rate constant (k2) / koff: isomerization rate; for koff: y-axis intercept; for Ki: two step induced fit model, read-out: K1 (equilibrium constant of initial encounter complex); for y-intercept of kobs plot (k−3): linear regression; for y-intercept of kobs plot (k−3) / k3 / k−3: one step model; for k3: slope of kobs vs ligand concentration; for k−3: y-intercept
T2 construct: consists of 410 amino acids (human HDAC4 T648-T1057) and has a molecular weight of 44.2 kDa; His6-SUMO (cleaved yes); made in house; host or cells: E. coli (BL21) DE3 pLysS, pET14b vector
Protocol: A serial dilution of inhibitor beginning at 10-fold of respective IC50-value in assay buffer (25 mM Tris-HCl, pH 8.0, 75 mM KCl, 0.001% Pluronic F-127) was made in a black 96-well microtiter half-area plate (Greiner, Kremsmuenster, Austria). The dilutions were added to 3 nM cdHDAC4wt. Shortly after, the reaction was initiated by adding 20 µM Boc-Lys{TFA}-7-Amino-4-methylcoumarin (Bachem, Bubendorf, Switzerland) as substrate. […] Finally 0.4 mg/mL trypsin was added to split the deacetylated substrate in the fluorescent product which was measured at 450 nm (λEx = 350 nm) (PherStar Plus, BMG Labtech, Ortenberg, Germany). […] The standardized RFUs were plotted against the incubation time. […] Due to this knowledge the data were fitted via non linear regression with GraphPad Prism program to the following equation by Copeland [27]:(2) Y=νs·t+νi−νs/kobs·(1−e^(−kobs·t))+d where vi is the initial slope, vs is the second lower slope, kobs is the respective rate constant, t is time and d the correction for possible data offset.
Afterwards kobs values were plotted against their respective inhibitor concentration.

cdHDAC4wt [3] = target: T2, cdHDAC4wt; test: Reversibility assay via rapid dilution; residence time from reversibility data; assay type: biochemical; details: first order dissociation assumed; read-out: RT (RD), residence time from rapid dilution
Protocol: Rapid dilution was performed by diluting the incubated mixture 100-fold with substrate (Boc-Lys{TFA}-7-Amino-4-methylcoumarin (Bachem, Bubendorf, Switzerland)) with the final substrate concentration being 20 µM. […] A positive control without TZD ligand and a blank without enzyme and TZD ligand were also carried out. […] Once again the final substrate concentration was 20 µM. […] The deacetylated substrate was converted into a fluorescent product by the addition of 0.4 mg/mL trypsin (AppliChem, Darmstadt, Germany). The release of fluorogenic substrate was followed in a microplate reader (PherStar Plus, BMG Labtech, Ortenberg, Germany) at 450 nm (λEx = 350 nm) and correlated the positive control. […] All incubations steps were performed for 60 min at 30 °C and 450 rpm. The substrate was preheated to 30 °C before the rapid dilution step.
The reciprocal values for k equals the residence time of the respective TZD ligand (residence time = koff^−1), which can be compared with the residence times gained from association data.

T2 sequence (P56524 648-1057): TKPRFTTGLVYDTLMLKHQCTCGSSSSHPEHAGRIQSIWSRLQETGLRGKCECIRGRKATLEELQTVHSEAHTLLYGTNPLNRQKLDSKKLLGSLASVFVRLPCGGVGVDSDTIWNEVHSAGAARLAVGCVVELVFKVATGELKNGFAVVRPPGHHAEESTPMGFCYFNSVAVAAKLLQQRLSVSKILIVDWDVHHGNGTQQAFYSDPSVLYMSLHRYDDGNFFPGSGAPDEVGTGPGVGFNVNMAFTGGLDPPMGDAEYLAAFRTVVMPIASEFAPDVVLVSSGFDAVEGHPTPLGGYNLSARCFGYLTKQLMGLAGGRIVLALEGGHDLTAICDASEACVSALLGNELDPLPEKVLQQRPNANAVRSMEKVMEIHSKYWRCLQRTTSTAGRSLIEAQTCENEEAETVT
T1 sequence (P56524 648-1057): as above

With `O=C1NC(=O)/C(=C/c2ccc(OCC(=O)N3N=C(c4ccccc4)CC3c3ccc(C(F)(F)F)cc3)cc2)S1` (stereo not shown) [4d] the IC50 [1] was 790 ± 40 nM, the residence time (cdHDAC4wt [2]) was 26 ± 11 min and the forward isomerization rate constant (k2) (cdHDAC4wt [2]; two step model) was 0.008 ± 0.001 s⁻¹. For the same compound, the koff (cdHDAC4wt [2]; two step model) was 0.0006 ± 0.0003 s⁻¹, the Ki (cdHDAC4wt [2]) was 1700 ± 700 nM and the kon (cdHDAC4wt [2]; two step model) was “(8 ± 1) × 10^−3 s^−1”. It also gave a residence time (cdHDAC4wt [3]) of 23 ± 6 min.

With `O=C(COc1ccc2cc(/C=C3\SC(=O)NC3=O)ccc2c1)Nc1ccc(C(F)(F)F)cc1` [7i] the IC50 [1] was 1300 ± 100 nM, the residence time (cdHDAC4wt [2]) was 9.3 ± 0.5 min and the “y-intercept of kobs plot (k−3)” value (cdHDAC4wt [2]) was 0.0018 s⁻¹. For the same compound, the k3 (cdHDAC4wt [2]) was 100 ± 30 M⁻¹ s⁻¹, the “k−3” value (cdHDAC4wt [2]) was 0.18 ± 0.01 s^−1 (×10^−2) and the residence time (cdHDAC4wt [3]) was 17 ± 3 min.

With `O=C(COc1ccc2cc(/C=C3\SC(=O)NC3=O)ccc2c1)Nc1ncccc1F` [7s] the IC50 [1] was 780 ± 80 nM, the residence time (cdHDAC4wt [2]) was 10 ± 1 min and the “y-intercept of kobs plot (k−3)” value (cdHDAC4wt [2]) was 0.0016 s⁻¹. The k3 (cdHDAC4wt [2]) was 210 ± 40 M⁻¹ s⁻¹, the “k−3” value (cdHDAC4wt [2]) was 0.16 ± 0.02 s^−1 (×10^−2) and the residence time (cdHDAC4wt [3]) was 11 ± 1 min.

In the case of `O=C1NC(=O)/C(=C/c2ccc3cc(OCC(=O)N4N=C(c5ccccc5)CC4c4ccccc4)ccc3c2)S1` (stereo not shown) [8a], the IC50 [1] is reported as 770 ± 90 nM, the residence time (cdHDAC4wt [2]) is reported as 11 ± 4 min and the forward isomerization rate constant (k2) (cdHDAC4wt [2]; two step model) is reported as 0.0049 ± 0.0014 s⁻¹. For the same compound, the koff (cdHDAC4wt [2]; two step model) was 0.0015 ± 0.0006 s⁻¹, the Ki (cdHDAC4wt [2]) was 2400 ± 1800 nM and the residence time (cdHDAC4wt [3]) was 19 ± 2 min.

With `Cc1ccc(C=C2SC(=O)N(CC(=O)Nc3nc4c(Cl)cccc4s3)C2=O)cc1` [GB2, N-(4-chlorobenzo[d]thiazol-2-yl)-2-(5-(4-methylbenzylidene)-2,4-dioxothiazolidin-3-yl)acetamide] the melting point was 292 to 294 °C.

Compound `Cc1ccc(C=C2SC(=O)N(CC(=O)Nc3nc4c(Cl)cccc4s3)C2=O)cc1C` [GB6, N-(4-chlorobenzo[d]thiazol-2-yl)-2-(5-(3,4-dimethylbenzylidene)-2,4-dioxothiazolidin-3-yl)acetamide] has a melting point of 214 to 216 °C.

Work on `COc1cccc2sc(NC(=O)CN3C(=O)SC(=Cc4ccccc4)C3=O)nc12` [GB8, 2-(5-benzylidene-2,4-dioxothiazolidin-3-yl)-N-(4-methoxybenzo[d]thiazol-2-yl)acetamide] yielded a melting point of 157 to 159 °C.

In the case of `Cc1cccc2sc(NC(=O)CN3C(=O)SC(=Cc4ccc(F)cc4)C3=O)nc12` [GB10, 2-(5-(4-fluorobenzylidene)-2,4-dioxothiazolidin-3-yl)-N-(4-methylbenzo[d]thiazol-2-yl)acetamide], the melting point is reported as 225 to 227 °C.

Work on `O=C(CN1C(=O)SC(=Cc2ccccc2)C1=O)Nc1nc2c(F)cc(F)cc2s1` [GB12, 2-(5-benzylidene-2,4-dioxothiazolidin-3-yl)-N-(4,6-difluorobenzo[d]thiazol-2-yl)acetamide] yielded a melting point of 280 to 282 °C.

With `Cc1ccc2nc(NC(=O)CN3C(=O)SC(=Cc4ccc(F)cc4F)C3=O)sc2c1` [GB13, 2-(5-(2,4-difluorobenzylidene)-2,4-dioxothiazolidin-3-yl)-N-(6-methylbenzo[d]thiazol-2-yl)acetamide] the melting point was 266 to 268 °C.

With `Cc1ccc(C=C2SC(=O)N(CC(=O)Nc3nc4c(F)cc(F)cc4s3)C2=O)cc1` [GB19, N-(4,6-difluorobenzo[d]thiazol-2-yl)-2-(5-(4-methylbenzylidene)-2,4-dioxothiazolidin-3-yl)acetamide] the melting point was 295 to 297 °C.

`Cc1ccc(C=C2SC(=O)N(CC(=O)Nc3nc4c(F)cc(F)cc4s3)C2=O)cc1C` [GB20, N-(4,6-difluorobenzo[d]thiazol-2-yl)-2-(5-(3,4-dimethylbenzylidene)-2,4-dioxothiazolidin-3-yl)acetamide] gave a melting point of 271 to 273 °C.

Work on `Cc1cc2nc(NC(=O)CN3C(=O)SC(=Cc4ccccc4)C3=O)sc2cc1C` [GB22, 2-(5-benzylidene-2,4-dioxothiazolidin-3-yl)-N-(5,6-dimethylbenzo[d]thiazol-2-yl)acetamide] yielded a melting point of 276 to 278 °C.

For `Cc1cc2nc(NC(=O)CN3C(=O)SC(=Cc4ccc(F)cc4)C3=O)sc2cc1C` [GB25, N-(5,6-dimethylbenzo[d]thiazol-2-yl)-2-(5-(4-fluorobenzylidene)-2,4-dioxothiazolidin-3-yl)acetamide], the melting point was 298 to 299 °C.

Compound `Cc1ccc(C=C2SC(=O)N(CC(=O)Nc3nc4cc(C)c(C)cc4s3)C2=O)cc1C` [GB26, N-(5,6-dimethylbenzo[d]thiazol-2-yl)-2-(5-(3,4-dimethylbenzylidene)-2,4-dioxothiazolidin-3-yl)acetamide] has a melting point of 284 to 286 °C.

For `O=C(CN1C(=O)SC(=Cc2ccc(F)cc2F)C1=O)Nc1nc2c(F)cc(F)cc2s1` [GB29, N-(4,6-difluorobenzo[d]thiazol-2-yl)-2-(5-(2,4-difluorobenzylidene)-2,4-dioxothiazolidin-3-yl)acetamide], the melting point was 274 to 276 °C.

`O=C(CN1C(=O)SC(=Cc2ccccc2)C1=O)Nc1nc2c(F)cccc2s1` [GB30, 2-(5-benzylidene-2,4-dioxothiazolidin-3-yl)-N-(4-fluorobenzo[d]thiazol-2-yl)acetamide] gave a melting point of 272 to 274 °C.

Compound `Cc1ccc2nc(NC(=O)CN3C(=O)SC(=Cc4ccc(Br)cc4)C3=O)sc2c1` [GB31, 2-(5-(4-bromobenzylidene)-2,4-dioxothiazolidin-3-yl)-N-(6-methylbenzo[d]thiazol-2-yl)acetamide] has a melting point of 292 to 294 °C.

`O=C(CN1C(=O)SC(=Cc2ccc(Cl)cc2)C1=O)Nc1nc2ccc(F)cc2s1` [GB33, 2-(5-(4-chlorobenzylidene)-2,4-dioxothiazolidin-3-yl)-N-(6-fluorobenzo[d]thiazol-2-yl)acetamide] gave a melting point of 290 to 292 °C.

`O=C(CN1C(=O)SC(=Cc2ccc(F)cc2)C1=O)Nc1nc2ccc(F)cc2s1` [GB34, N-(6-fluorobenzo[d]thiazol-2-yl)-2-(5-(4-fluorobenzylidene)-2,4-dioxothiazolidin-3-yl)acetamide] gave a melting point of 260 to 262 °C.

`COc1cccc2sc(NC(=O)CN3C(=O)SC(=Cc4ccc(F)cc4)C3=O)nc12` [GB35, 2-(5-(4-fluorobenzylidene)-2,4-dioxothiazolidin-3-yl)-N-(4-methoxybenzo[d]thiazol-2-yl)acetamide] showed a melting point of 172 °C.

For `Cc1cccc2sc(NC(=O)CN3C(=O)SC(=Cc4ccccn4)C3=O)nc12` [PB2, 2-(2,4-dioxo-5-(pyridin-2-ylmethylene)thiazolidin-3-yl)-N-(4-methylbenzo[d]thiazol-2-yl)acetamide], the melting point was 260 °C (dec.).

In the case of `O=C(CN1C(=O)SC(=Cc2ccccn2)C1=O)Nc1nc2c(Cl)cccc2s1` [PB4, N-(4-chlorobenzo[d]thiazol-2-yl)-2-(2,4-dioxo-5-(pyridin-2-ylmethylene)thiazolidin-3-yl)acetamide], the melting point is reported as 273 °C (dec.).

With `O=C(CN1C(=O)SC(=Cc2ccccn2)C1=O)Nc1nc2c(F)cc(F)cc2s1` [PB5, N-(4,6-difluorobenzo[d]thiazol-2-yl)-2-(2,4-dioxo-5-(pyridin-2-ylmethylene)thiazolidin-3-yl)acetamide] the melting point was 294 °C (dec.).

For `Cc1cc2nc(NC(=O)CN3C(=O)SC(=Cc4ccccn4)C3=O)sc2cc1C` [PB6, N-(5,6-dimethylbenzo[d]thiazol-2-yl)-2-(2,4-dioxo-5-(pyridin-2-ylmethylene)thiazolidin-3-yl)acetamide], the melting point was 295 °C (dec.).

`COc1cccc2sc(NC(=O)CN3C(=O)SC(=Cc4ccccn4)C3=O)nc12` [PB7, 2-(2,4-dioxo-5-(pyridin-2-ylmethylene)thiazolidin-3-yl)-N-(4-methoxybenzo[d]thiazol-2-yl)acetamide] showed a melting point of 220 to 222 °C.

For `CCOc1ccc2nc(NC(=O)CN3C(=O)SC(=Cc4ccccn4)C3=O)sc2c1` [PB8, 2-(2,4-dioxo-5-(pyridin-2-ylmethylene)thiazolidin-3-yl)-N-(6-ethoxybenzo[d]thiazol-2-yl)acetamide], the melting point was 230 °C (dec.).

In the case of `O=C(CN1C(=O)SC(=Cc2ccccn2)C1=O)Nc1nc2ccc(F)cc2s1` [PB9, 2-(2,4-dioxo-5-(pyridin-2-ylmethylene)thiazolidin-3-yl)-N-(6-fluorobenzo[d]thiazol-2-yl)acetamide], the melting point is reported as 265 °C (dec.).
